Drawing on article PMC7358406, “Molecular and Biochemical Characterization of Salt-Tolerant Trehalose-6-Phosphate Hydrolases Identified by Screening and Sequencing Salt-Tolerant Clones From the Metagenomic Library of the Gastrointestinal Tract” (Frontiers in Microbiology, 2020), this text covers Km for one molecule.

Test [1] has as its system T1, rTRE_P3 (TRE_P3), trehalose-6-phosphate hydrolase.
T1 construct: full length without signal peptide, gene 1644 bp
The experiment in a line: p-nitrophenol release, A410, initial rates. The note with it: 50 mM HEPES-NaOH pH 7.5 and 100 mM NaCl (standard assay), 30°C; pNPG 0.5-10 mM. It is filed as biochemical, Staphylococcus warneri.

In test [2] the test system is T2, rTRE_P2 (TRE_P2), trehalose-6-phosphate hydrolase.
T2 construct: full length without signal peptide, gene 1638 bp
Kind of test: p-nitrophenol release, A410, initial rates. It is filed as biochemical, Staphylococcus warneri. As to conditions: 50 mM HEPES-NaOH pH 7.5 and 100 mM NaCl (standard assay), 30°C; pNPG 0.5-10 mM.

As usually defined, the Km is the concentration of substrate that gives half-maximal velocity. Turning to `O=[N+]([O-])c1ccc(O[C@H]2O[C@H](CO)[C@@H](O)[C@H](O)[C@H]2O)cc1` [p-nitrophenyl-α-D-glucopyranoside], the Km came out at 12.5 mM in test [1] and 15.6 mM in test [2].
